Laboratory results: patent US20180369426A1, “COMPOSITIONS COMPRISING FLUORESCENT DYES ASSOCIATED WITH VIRAL COMPONENTS FOR NERVE IMAGING” (priority 2008, published 2018)

System: footpad nerves
Experiment: Mouse footpad injection, ICG fluorescence imaging of nerves (Example 3)
Format: in vivo
Conditions: 10 μL into footpad, imaged 2 hours after injection, back dissected (FIG. 3A)
Method: Example 3 is a comparison of imaging with a fluorescent dye alone versus a fluorescent dye bound to the virus. Unless otherwise specified, all images are digital images obtained from a CCD camera.
A mouse ([…]) was briefly anesthetized by halothane inhalation. The right footpad of the mouse was injected with 10 μL of ICG, phosphate buffered saline (PBS) and a virus mutant, HSV-2 ΔRR (“ICG/PBS/HSV-2 ΔRR mixture”). The left footpad was injected with 10 μl of ICG/PBS mixture as a control. The same concentration of ICG was present in both mixtures.
2 hours after footpad injections, the mouse was anesthetized and then euthanized with interperitoneal injection of sodium pentobarbital. ICG fluorescence images were acquired first of the intact mouse and then at various stages of dissection.

## CC1(C)C(/C=C/C=C/C=C/C=C2\N(CCCCS(=O)(=O)O)c3ccc4ccccc4c3C2(C)C)=[N+](CCCCS(=O)(=O)[O-])c2ccc3ccccc3c21 [ICG, indocyanine green]
  extent of fluorescence after footpad injection: limited to the left foot itself
